Results: patent publication US9518022B2, “Anti-HIV compounds” (priority 2014, dated 2016)
Like-named read-outs stand apart in the source and are kept apart here.

Experiment: Cytotoxicity assay (AlamarBlue) in mock infected MT-2 cells
Assay type: cell-based
Conditions: human
Protocol: The present assay was used to screen candidate antiviral compounds by quantification of virus spread and production over several rounds of infection in vitro. MT-2, a HIV-1 permissive human T-cell line, was seeded in microtiter plates and was simultaneously treated with serially diluted compound and inoculated with a HIV-1 NL4-3 viral clone engineered to express Renilla luciferase in place of Nef. Following treatment, the culture was incubated for 96 hours. After the incubation, media was collected and used to estimate relative infectivity on the indicator cell line, TZM-bl. Additionally, viral spread was quantified by measuring luciferase activity via a commercially available luciferase substrate. In parallel, MT-2 cells were seeded and inoculated with mock virus in the presence of serially diluted compound. Compound toxicity was quantified 96 hours after treatment with AlamarBlue.
MT-2 (NIH Aids reagent program 237) cells were grown and maintained in an incubator at 37° C. with 5% CO2 using a basal medium of RPMI-1640 supplemented with 10% FBS. Cells were seeded in 100 μl at 2×10^4 cells/well in white walled 96-well microtiter plates. Candidate compounds were 3-fold serially diluted in the appropriate solvent. Solvent without compound was used as a no drug reference. Cells were inoculated at a multiplicity of 0.027 with an HIV-1 NL4-3 virus stock engineered to express Renilla luciferase in place of Nef. Diluted virus stock was first added to serially diluted compound. Compound and virus were delivered to cells in an equal volume (100 μl) and treated cultures were returned to the incubator for 96 hours. In parallel, plates for cytotoxicity estimates were prepared in the same way except cells were plated in clear walled 96-well microtiter plates and were mock infected.
At 96 hours post treatment, 20 μl AlamarBlue proliferation reagent was added to 200 μl treated and mock infected cultures and incubated for 3 hours at 37° C. with 5% CO2 then read at 545, 590 nm on fluorescence plate reader (Biotek).
For all assays, data was imported into Accelrys Assay Explorer 3.3. In Assay Explorer, % inhibition (antiviral or cytotoxicity) was calculated using the solvent control as a reference by the following equation: 1−(SignalCompound/SignalReference). The % Inhibition and compound concentration data was fitted using the following 4-parameter logistic model (Assay Explorer model 42):
[formula] where X is compound concentration, Y is % inhibition, D is the maximum % Inhibition (constrained to 100%), C is IC50 value or inflection point, B is the hill slope, and A is the minimum % inhibition (constrained to 0%). The IC50 value is reported as the EC50 or CC50 depending on the assay endpoint. EC50 represents the effective concentration at which virus replication is inhibited by 50 percent. CC50 represents the concentration that results in the death of 50 percent of the host cells. The selectivity or therapeutic index (SI or TI), is the ratio of CC50 over EC50 and represents the relative effectiveness in inhibiting viral replication compared to inducing cell death.

[1] = mock infected MT-2 cells, 96 hours, AlamarBlue, read-out: CC50

SMILES | CC50 at 96 h [µM] | CC50 at 96 h [1] [µM]
COc1cc2c(cc1OCc1ccccc1)CCNC2/C=C/c1ccc(-n2ccnc2C)cc1 (stereo not shown) [DM, 6-(benzyloxy)-7-methoxy-1-[(E)-2-[4-(2-methyl-1H-imidazol-1-yl)phenyl]ethenyl]-1,2,3,4-tetrahydroisoquinoline] | 21.1 | 
COc1cccc(-c2ncc(/C=C/C3NCCc4cc(OCc5ccccc5)c(OC)cc43)cn2)c1 (stereo not shown) [DN, 6-(benzyloxy)-7-methoxy-1-[(E)-2-[2-(3-methoxyphenyl)pyrimidin-5-yl]ethenyl]-1,2,3,4-tetrahydroisoquinoline] | 17.1 | 
CCN1CCN(c2ccc(/C=C/C3NCCc4cc(OCc5ccccc5)c(OC)cc43)cc2)CC1 (stereo not shown) [DO, 6-(benzyloxy)-1-[(E)-2-[4-(4-ethylpiperazin-1-yl)phenyl]ethenyl]-7-methoxy-1,2,3,4-tetrahydroisoquinoline] | 3.61 | 
COc1cc2c(cc1OCc1ccccc1)CCNC2/C=C/c1cn(C)c2ncccc12 (stereo not shown) [DP, 6-(benzyloxy)-7-methoxy-1-[(E)-2-{1-methyl-1H-pyrrolo[2,3-b]pyridin-3-yl}ethenyl]-1,2,3,4-tetrahydroisoquinoline] | 1.3 | 
COc1cc2c(cc1OCc1ccccc1)CCNC2/C=C/c1cccc(-c2ccncc2)c1 (stereo not shown) [DQ, 6-(benzyloxy)-7-methoxy-1-[(E)-2-[3-(pyridin-4-yl)phenyl]ethenyl]-1,2,3,4-tetrahydroisoquinoline] | 4.4 | 
COc1cc2c(cc1OCc1ccccc1)CCNC2/C=C/c1cscn1 (stereo not shown) [DR, 6-(benzyloxy)-7-methoxy-1-[(E)-2-(1,3-thiazol-4-yl)ethenyl]-1,2,3,4-tetrahydroisoquinoline] | 25.4 | 
COc1cc2c(cc1OCc1ccccc1)CCNC2/C=C/c1ccc(-c2cncnc2)cc1 (stereo not shown) [DS, 6-(benzyloxy)-7-methoxy-1-[(E)-2-[4-(pyrimidin-5-yl)phenyl]ethenyl]-1,2,3,4-tetrahydroisoquinoline] | 7.39 | 
COc1cc2c(cc1OCc1ccccc1)CCNC2/C=C/c1ccc(-n2cncn2)cc1 (stereo not shown) [DT, 6-(benzyloxy)-7-methoxy-1-[(E)-2-[4-(1H-1,2,4-triazol-1-yl)phenyl]ethenyl]-1,2,3,4-tetrahydroisoquinoline] | 7.39 | 
COc1cc2c(cc1OCc1ccccc1)CCNC2/C=C/c1cc2ccccc2s1 (stereo not shown) [DU, 1-[(E)-2-(1-benzothiophen-2-yl)ethenyl]-6-(benzyloxy)-7-methoxy-1,2,3,4-tetrahydroisoquinoline] | 16.3 | 
COc1cc2c(cc1OCc1ccccc1)CCNC2/C=C/c1nccs1 (stereo not shown) [DV, 6-(benzyloxy)-7-methoxy-1-[(E)-2-(1,3-thiazol-2-yl)ethenyl]-1,2,3,4-tetrahydroisoquinoline] | 21.8 | 
COc1cc2c(cc1OCc1ccccc1)CCNC2/C=C/c1ccc(N2CCN(C)CC2)cc1 (stereo not shown) [DW, 6-(benzyloxy)-7-methoxy-1-[(E)-2-[4-(4-methylpiperazin-1-yl)phenyl]ethenyl]-1,2,3,4-tetrahydroisoquinoline] | 2.31 | 
COc1cc2c(cc1OCc1ccccc1)CCNC2/C=C/c1ccccc1N1CCCCC1 (stereo not shown) [DX, 6-(benzyloxy)-7-methoxy-1-[(E)-2-[2-(piperidin-1-yl)phenyl]ethenyl]-1,2,3,4-tetrahydroisoquinoline] | 5.38 | 
COc1cc2c(cc1OCc1ccccc1)CCNC2/C=C/c1scnc1C (stereo not shown) [DY, 6-(benzyloxy)-7-methoxy-1-[(E)-2-(4-methyl-1,3-thiazol-5-yl)ethenyl]-1,2,3,4-tetrahydroisoquinoline] | 21.6 | 
COc1cc2c(cc1OCc1ccccc1)CCNC2/C=C/c1ccc(-c2ccccn2)cc1 (stereo not shown) [DZ, 6-(benzyloxy)-7-methoxy-1-[(E)-2-[4-(pyridin-2-yl)phenyl]ethenyl]-1,2,3,4-tetrahydroisoquinoline] | 5.8 | 
COc1cc2c(cc1OCc1ccccc1)CCNC2/C=C/c1ccc(N2CCCCC2)cc1 (stereo not shown) [EA, 6-(benzyloxy)-7-methoxy-1-[(E)-2-[4-(piperidin-1-yl)phenyl]ethenyl]-1,2,3,4-tetrahydroisoquinoline] | 4.8 | 
COc1cc2occc2cc1/C=C/C1NCCc2cc(OCc3ccccc3)c(OC)cc21 (stereo not shown) [EB, 6-(benzyloxy)-7-methoxy-1-[(E)-2-(6-methoxy-1-benzofuran-5-yl)ethenyl]-1,2,3,4-tetrahydroisoquinoline] | 6 | 

SMILES | CC50 at 96 h [µM] | CC50 at 96 h [1] [µM]
COc1cc2c(cc1OCc1ccccc1)CCNC2/C=C/c1cccc(-c2ncco2)c1 (stereo not shown) [EC, 6-(benzyloxy)-7-methoxy-1-[(E)-2-[3-(1,3-oxazol-2-yl)phenyl]ethenyl]-1,2,3,4-tetrahydroisoquinoline] | 7.5 | 
COc1cc2c(cc1OCc1ccccc1)CCNC2/C=C/c1ccc(-c2ncco2)cc1 (stereo not shown) [ED, 6-(benzyloxy)-7-methoxy-1-[(E)-2-[4-(1,3-oxazol-2-yl)phenyl]ethenyl]-1,2,3,4-tetrahydroisoquinoline] | 7.5 | 
CCOC(=O)c1coc(-c2ccc(/C=C/C3NCCc4cc(OCc5ccccc5)c(OC)cc43)cc2)n1 (stereo not shown) [EE, ethyl 2-{4-[(E)-2-[6-(benzyloxy)-7-methoxy-1,2,3,4-tetrahydroisoquinolin-1-yl]ethenyl]phenyl}-1,3-oxazole-4-carboxylate] | 5.9 | 
CCOC(=O)c1coc(-c2cccc(/C=C/C3NCCc4cc(OCc5ccccc5)c(OC)cc43)c2)n1 (stereo not shown) [EF, ethyl 2-{3-[(E)-2-[6-(benzyloxy)-7-methoxy-1,2,3,4-tetrahydroisoquinolin-1-yl]ethenyl]phenyl}-1,3-oxazole-4-carboxylate] | 5.9 | 
COc1cc2c(cc1OCc1ccccc1)CCNC2/C=C/c1ccc2c(c1)OCC2 (stereo not shown) [EG, 6-(benzyloxy)-1-[(E)-2-(2,3-dihydro-1-benzofuran-6-yl)ethenyl]-7-methoxy-1,2,3,4-tetrahydroisoquinoline] | 19.3 | 
COc1cc(OC)c(/C=C/C2NCCc3cc(OCc4ccccc4)c(OC)cc32)cc1C (stereo not shown) [EH, 6-(benzyloxy)-1-[(E)-2-(2,4-dimethoxy-5-methylphenyl)ethenyl]-7-methoxy-1,2,3,4-tetrahydroisoquinoline] | 3.59 | 
COc1ccc(/C=C/C2NCCc3cc(OCc4ccccc4)c(OC)cc32)cc1C (stereo not shown) [EI, 6-(benzyloxy)-7-methoxy-1-[(E)-2-(4-methoxy-3-methylphenyl)ethenyl]-1,2,3,4-tetrahydroisoquinoline] | 11.8 | 
COc1cccc(/C=C/C2NCCc3cc(OCc4ccccc4)c(OC)cc32)c1 (stereo not shown) [EJ, 6-(benzyloxy)-7-methoxy-1-[(E)-2-(3-methoxyphenyl)ethenyl]-1,2,3,4-tetrahydroisoquinoline] |  | 10
COc1ccc(OC)c(/C=C/C2NCCc3cc(OCc4ccccc4)c(OC)cc32)c1 (stereo not shown) [EK, 6-(benzyloxy)-1-[(E)-2-(2,5-dimethoxyphenyl)ethenyl]-7-methoxy-1,2,3,4-tetrahydroisoquinoline] |  | 3.6
COc1cc2c(cc1OCc1ccccc1)CCNC2/C=C/c1ccc(OC)c(C)c1C (stereo not shown) [EL, 6-(benzyloxy)-7-methoxy-1-[(E)-2-(4-methoxy-2,3-dimethylphenyl)ethenyl]-1,2,3,4-tetrahydroisoquinoline] | 3.25 | 
COc1ccc(/C=C/C2NCCc3cc(OCc4ccccc4)c(OC)cc32)cc1CN1CCCCC1 (stereo not shown) [EM, 6-(benzyloxy)-7-methoxy-1-[(E)-2-[4-methoxy-3-(piperidin-1-ylmethyl)phenyl]ethenyl]-1,2,3,4-tetrahydroisoquinoline] | 1.8 | 
COc1ccc(/C=C/C2NCCc3cc(OCc4ccccc4)c(OC)cc32)cc1Cn1ccnc1C (stereo not shown) [EN, 6-(benzyloxy)-7-methoxy-1-[(E)-2-{4-methoxy-3-[(2-methyl-1H-imidazol-1-yl)methyl]phenyl}ethenyl]-1,2,3,4-tetrahydroisoquinoline] | 4.03 | 
COc1ccc(/C=C/C2NCCc3cc(OCc4ccccc4)c(OC)cc32)cc1COCC(F)(F)F (stereo not shown) [EO, 6-(benzyloxy)-7-methoxy-1-[(E)-2-{4-methoxy-3-[(2,2,2-trifluoroethoxy)methyl]phenyl}ethenyl]-1,2,3,4-tetrahydroisoquinoline] | 1.94 | 
COc1cc2c(cc1OCc1ccccc1)CCNC2/C=C/c1ccc(C(=O)O)cc1 (stereo not shown) [EQ, 4-[(E)-2-[6-(benzyloxy)-7-methoxy-1,2,3,4-tetrahydroisoquinolin-1-yl]ethenyl]benzoic acid] | 10 | 
COc1cc2c(cc1OCc1ccccc1)CCNC2/C=C/c1cccc(C(=O)O)c1 (stereo not shown) [ER, 3-[(E)-2-[6-(benzyloxy)-7-methoxy-1,2,3,4-tetrahydroisoquinolin-1-yl]ethenyl]benzoic acid] | 10 | 
